Article PMC6156508, “GA-Hecate antiviral properties on HCV whole cycle represent a new antiviral class and open the door for the development of broad spectrum antivirals” (Scientific Reports, 2018)
Where two headings read alike, the source gives them in different places. Where a SMILES comes first, the peptide text is derived from it. The star is where a group is joined. Galloyl = O=C(c1cc(O)c(O)c(O)c1)*

Experiments:
[1] = system: HCV subgenomic replicon SGR-Feo-JFH-1 (genotype 2a); experiment: HCV subgenomic replicon replication, luciferase assay (genotype 2a); type: cell-based, hepatitis C virus
Description: Figure 2 Hecate and its derivative-peptide effects on subgenomic HCV genotype 2a replication and hepatotoxicity. (A) Hecate. (B) Lys- Hecate. (C) GA-Hecate. (D) GA2-Hecate. (E) Acetyl-Hecate. (F) Glu-Hecate. Luciferase assays report HCV replication and MTT assays report the viability of Huh-7.5 cells harboring SGR-JFH-1 Feo under peptide treatment. Water was used as a negative control of virus replication inhibition and cell death (Control (−)), and Cyclosporine A was used as a positive control for virus replication inhibition (Control (+)). Red dotted lines represent the arbitrary threshold of 80% cell viability, and blue dotted lines represent the maximum inhibition presented by Hecate at the maximum safe concentration. Bars represent triplicates of the three independent assays. ***P < 0.01 vs control (−).
Cell lines harboring subgenomic or genomic replicons were seeded at 5 × 10^3 cells /well on 96-well plates and the compounds were added 24 h post-seeding, in a concentration range between 2.5–20 μM. After 48 h of treatment, the cells were disrupted with 30 μL of passive lysis buffer (Promega, Madison, WI, USA), and luciferase substrate (Promega, Madison, WI, USA) was automatically added to each sample. Luciferase activity was measured using a luminometer (FLUOstar Omega/BMG LABTECH, Offenburg, BW, DE). The same assays were performed in Huh-7.5 cell lines harboring SGR-JFH1 Feo, S52/SG-neo or FL-J6/JFH-50C19Rluc2AUbi. Cyclosporine A (Sigma-Aldrich) at 1 μM was used as positive control of viral replication inhibition and dH2O as negative control.
GA-Hecate toxicity and viral inhibition profile in 24, 48 and 72h post-treatment in […]
GA-Hecate toxicity and viral inhibition capacity were evaluated at 24, 48 and 72h post-treatment. Tested concentrations were 1.25; 2.5; 5; 10; 20; and 40 µM. At the end of every incubation, cells were stained using MTT as previously described. Similarly, at every time point, treated cells were lysed using PLB and summited to Luminescence analysis as previously described. […]

[2] = system: JFH-1-infected Huh-7.5 cells; experiment: HCV release/assembly evaluation (qPCR intra/extracellular HCV RNA); type: cell-based, hepatitis C virus; details: 24 h treatment; 5, 10 and 20 μM, not dose-dependent
Description: Figure 6 GA-Hecate effect on HCV Release and infectivity. (A) HCV-infected Huh-7.5 cells were treated for 24 h with GA-Hecate. RNA was isolated and summited to qPCR for HCV 5′ UTR. Intracellular HCV expression was normalized by GAPDH, and extracellular HCV expression was calculated by absolute quantification. The difference between the intra and extracellular RNA expression represents the HCV release. Bars represent triplicate samples of three independent assays. Naringenin (200 μM) was used as a positive control of HCV release inhibition and water was a negative control of HCV release inhibition. ^aP < 0.001 vs Control (−), intracellular. ^bP < 0.001 vs Control (−), extracellular. F = 22.58, df (row factor) = 4. (B) Infectivity. HCV-infected Huh-7.5 cells were treated for 24 h with GA-Hecate, and then the supernatant was collected and used to infect naïve Huh-7.5 cells. The capacity of HCVcc particles to generate a new infection after GA-Hecate treatment is represented by the bars. […]
JFH-1-infected Huh-7.5 cells were used to evaluate the GA-Hecate effect on virus release/assembly. […] After treatment, the intracellular and extracellular RNA content was isolated following the TRIzol reagent protocol and quantified by qPCR of the HCV 5′ UTR region (forward: 5′ CGGGAGAGCCATAGTGG; reverse, 5′ […]; probe: 5′-FAM-[…]-TAMRA-3) using TaqMan® Universal PCR Master Mix (Thermo Scientific, CA, USA).

[3] = system: J6/JFH-1-infected Huh-7.5 cells; experiment: Necrosis analysis (propidium iodide staining); type: cell-based, human
Description: (§1) Apoptosis and Necrosis analysis
(§2) The ability of GA-Hecate inducing cell death by necrosis and apoptosis was assessed in 48 and 72h post-treatment (p.t) at concentrations: 1.25; 2.5; 5; 10; 20 and 40 μM. For necrosis evaluation, cells were stained using Propidium Iodide at […], which was incubated with the cells 15 minutes prior fixation. Subsequently, cells were fixed using paraformaldehyde 4% in PBS (PFA 4%) for 15 minutes and nuclei stained using DAPI 1 μg/mL for 5 minutes. For apoptosis evaluation, cells were fixed using PFA 4% during 15 minutes, permeabilized using Triton X- 100 (Sigma) 0.1% in PBS and stained using anti-Active Caspase 3 antibody (host: Rabbit) (1:200 in BSA 1% in PBS) (Abcam 13847) for 2h. Then cells were rinsed using PBS and stained using anti-rabbit AlexaFluor 594 (1:500 in BSA 1% PBS) (Thermo Scientific A21207) during 2h. Nuclei were stained using DAPI for 5 minutes. For both assays, cells were counted in 5 randomly chosen fields in duplicate. […]
Figure S2. Cell death mechanisms triggered by GA-Hecate 48h post-treatment in […]
J6/JFH-1- infected Huh-7.5 cells. […]
B) Necrosis assessment.
Necrotic cells were stained using Propidium iodide […], which is able to cross only damaged membranes and reaches the nucleus. PI is represented in red and cell nuclei were counterstained using DAPI (blue). Bars represents the average of 5 fields in duplicate. Ns: non statistically significant. *** Pvalue< 0.001vs 0.00 µM […]
Figure S3. Cell death mechanisms triggered by GA-Hecate 72h post-treatment in […]

[4] = system: J6/JFH-1-infected Huh-7.5 cells; experiment: Apoptosis analysis (active caspase-3 staining); type: cell-based, human; details: 1.25-40 μM; 48 and 72 h p.t.
Description: as §1, §2
Figure S2. Cell death mechanisms triggered by GA-Hecate 48h post-treatment in J6/JFH-1- infected Huh-7.5 cells. A) Apoptosis activation triggered by GA-Hecate was measured by Active Caspase-3 in treated cells. Caspase is artificially represented in green and nuclei were stained using DAPI 1µg/mL (blue). B) Necrosis assessment. […]

With `CC(C)C[C@H](NC(=O)[C@H](C)NC(=O)[C@H](CCCCN)NC(=O)[C@H](CCCCN)NC(=O)[C@H](CC(C)C)NC(=O)[C@H](C)NC(=O)[C@H](CCCCN)NC(=O)[C@H](CCCCN)NC(=O)[C@H](CC(C)C)NC(=O)[C@H](CCCCN)NC(=O)[C@H](CCCCN)NC(=O)[C@H](CC(C)C)NC(=O)[C@H](C)NC(=O)[C@H](CCCCN)NC(=O)[C@H](CCCCN)NC(=O)[C@H](CC(C)C)NC(=O)[C@H](C)NC(=O)[C@H](CCCCN)NC(=O)[C@H](CC(C)C)NC(=O)[C@H](C)NC(=O)[C@H](CC(C)C)NC(=O)[C@H](C)NC(=O)[C@H](Cc1ccccc1)NC(=O)c1cc(O)c(O)c(O)c1)C(N)=O` [GA-Hecate] (Galloyl-FALALKALKKALKKLKKALKKAL-NH2) as the compound, how does the “inhibition of viral replication” value ([1]; 1.25 µM, 72 h) read?
The value was “about 50%”.

What about the “SI (selectivity index), ratio CC50/EC50” value ([1]; 48 h, genotype 2a replicon) of the same compound?
The value was 3.13.

And the “SI 72 h post-treatment” value ([1]; 72 h)?
The value was 5.

What about the EC50 ([1]; Huh-7.5 harbouring SGR-Feo-JFH-1 genotype 2a, 48 h treatment, 2.5-20 μM, luciferase, triplicate in three independent assays, read-out: EC50 (50% effective concentration for HCV)) of the same compound?
The EC50 was 11.2 µM.

And the EC50 ([1]; SGR-Feo JFH-1, 72 h, 1.25-40 µM, read-out: EC50 72 h post-treatment (IC50 in the supplement))?
The EC50 was 3.8 µM.

And the “inhibition of HCV replication at the maximum safe concentration” value ([1]; genotype 2a replicon, 48 h, at each peptide's maximum safe concentration (Hecate 10 μM; Lys-, Glu-, Acetyl-Hecate 5 μM))?
Its value is “approximately 80%”.

What about the “inhibition of virus release” value [2] of the same compound?
The value was “approximately 50%”.

And the necrosis ([3]; 20 μM, over the time (48 and 72 h))?
The necrosis was “about 20%”.

What about the necrosis ([3]; 40 μM, 48h p.t., propidium iodide) of the same compound?
Its necrosis is 50%.

What about the necrosis ([3]; 40 μM, 72h p.t., propidium iodide) of the same compound?
Its necrosis is 10%.

And the “apoptosis induction (active caspase-3)” value [4]?
The value was “no significate apoptosis induction in any tested time point or concentration”.
